Measurements from ChEMBL document CHEMBL5465560, “Selectivity Literature for EUbOPEN Chemogenomic Library” (2024).

Legend:
[1] = system: T1, Receptor-type tyrosine-protein kinase FLT3 (Homo sapiens), P36888 [D835H]; conditions: at 10 µM
T1 sequence (whole entry): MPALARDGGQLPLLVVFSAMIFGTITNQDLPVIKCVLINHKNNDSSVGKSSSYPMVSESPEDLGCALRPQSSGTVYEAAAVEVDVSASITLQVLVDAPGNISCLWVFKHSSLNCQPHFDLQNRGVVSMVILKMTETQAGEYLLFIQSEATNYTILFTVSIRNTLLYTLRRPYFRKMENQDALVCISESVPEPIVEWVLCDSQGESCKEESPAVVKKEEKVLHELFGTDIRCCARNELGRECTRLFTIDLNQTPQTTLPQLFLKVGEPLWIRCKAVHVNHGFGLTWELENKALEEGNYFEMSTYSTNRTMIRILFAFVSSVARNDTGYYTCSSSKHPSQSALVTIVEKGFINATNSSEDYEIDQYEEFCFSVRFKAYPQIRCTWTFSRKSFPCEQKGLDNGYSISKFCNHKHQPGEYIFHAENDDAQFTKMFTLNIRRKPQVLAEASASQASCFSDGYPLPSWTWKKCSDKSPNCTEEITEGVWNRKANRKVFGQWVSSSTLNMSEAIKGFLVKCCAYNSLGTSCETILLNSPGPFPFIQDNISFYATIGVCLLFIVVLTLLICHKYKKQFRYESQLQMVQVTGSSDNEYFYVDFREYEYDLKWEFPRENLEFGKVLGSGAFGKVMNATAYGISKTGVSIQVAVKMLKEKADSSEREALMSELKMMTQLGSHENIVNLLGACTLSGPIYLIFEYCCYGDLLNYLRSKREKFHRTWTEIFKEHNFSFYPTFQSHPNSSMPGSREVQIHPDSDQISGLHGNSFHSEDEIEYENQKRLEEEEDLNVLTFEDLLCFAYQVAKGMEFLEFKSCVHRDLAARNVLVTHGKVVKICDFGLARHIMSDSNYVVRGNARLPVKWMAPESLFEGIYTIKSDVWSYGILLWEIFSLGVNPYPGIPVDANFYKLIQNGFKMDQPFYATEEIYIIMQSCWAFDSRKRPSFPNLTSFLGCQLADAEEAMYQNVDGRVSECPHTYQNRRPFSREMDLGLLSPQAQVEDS

[2] = target: Tyrosine-protein kinase BTK (Homo sapiens, UniProt Q06187); assay: Selectivity interaction (ActivX KiNativ screen (kinase selectivity in THP-1 cell lysates)) EUB0000639a BTK; format: subcellular; conditions: lysate, at 0.04 µM
[3] = target: Calcium/calmodulin-dependent protein kinase type 1D (Homo sapiens) (UniProt Q8IU85); assay: Selectivity interaction (Kinase panel (Invitrogen)) EUB0000639a CAMK1D; conditions: at 200 nM
[4] = target: T2, Serine/threonine-protein kinase Nek5 (Homo sapiens) (UniProt Q6P3R8); assay: Selectivity interaction (KinomeScan (DiscoverX)) EUB0000607a NEK5; conditions: at 10 µM
T2 sequence (whole entry): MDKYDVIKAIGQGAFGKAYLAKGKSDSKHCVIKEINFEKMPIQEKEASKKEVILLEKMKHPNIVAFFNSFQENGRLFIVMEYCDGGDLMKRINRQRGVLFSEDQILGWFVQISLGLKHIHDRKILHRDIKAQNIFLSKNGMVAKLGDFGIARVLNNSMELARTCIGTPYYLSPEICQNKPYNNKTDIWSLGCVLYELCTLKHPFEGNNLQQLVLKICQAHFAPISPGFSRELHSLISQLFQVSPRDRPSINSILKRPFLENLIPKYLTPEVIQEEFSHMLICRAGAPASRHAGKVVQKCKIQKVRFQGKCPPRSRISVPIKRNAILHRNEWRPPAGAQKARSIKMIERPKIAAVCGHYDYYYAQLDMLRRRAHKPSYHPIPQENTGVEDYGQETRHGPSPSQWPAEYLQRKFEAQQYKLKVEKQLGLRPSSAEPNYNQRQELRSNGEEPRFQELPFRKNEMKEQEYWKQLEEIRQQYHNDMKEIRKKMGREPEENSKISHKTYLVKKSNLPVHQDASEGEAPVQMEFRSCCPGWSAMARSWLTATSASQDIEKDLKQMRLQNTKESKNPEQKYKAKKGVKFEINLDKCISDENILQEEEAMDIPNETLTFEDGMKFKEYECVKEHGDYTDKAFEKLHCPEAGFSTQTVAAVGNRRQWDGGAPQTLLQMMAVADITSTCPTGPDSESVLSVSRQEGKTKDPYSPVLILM

[5] = target: cAMP-dependent protein kinase catalytic subunit alpha (Homo sapiens, UniProt P17612); assay: Selectivity interaction (KinomeScan (DiscoverX)) EUB0001049a PRKACA; conditions: at 1 µM
[6] = target: Mitogen-activated protein kinase 9 (Homo sapiens, UniProt P45984); assay: Selectivity interaction (KinomeScan (DiscoverX)) EUB0000695a MAPK9; conditions: at 100 nM
[7] = target: T3, Serine/threonine-protein kinase Nek3 (Homo sapiens) (UniProt P51956); assay: Selectivity interaction (KinomeScan (DiscoverX)) EUB0000595a NEK3; conditions: at 10 µM
T3 sequence (whole entry): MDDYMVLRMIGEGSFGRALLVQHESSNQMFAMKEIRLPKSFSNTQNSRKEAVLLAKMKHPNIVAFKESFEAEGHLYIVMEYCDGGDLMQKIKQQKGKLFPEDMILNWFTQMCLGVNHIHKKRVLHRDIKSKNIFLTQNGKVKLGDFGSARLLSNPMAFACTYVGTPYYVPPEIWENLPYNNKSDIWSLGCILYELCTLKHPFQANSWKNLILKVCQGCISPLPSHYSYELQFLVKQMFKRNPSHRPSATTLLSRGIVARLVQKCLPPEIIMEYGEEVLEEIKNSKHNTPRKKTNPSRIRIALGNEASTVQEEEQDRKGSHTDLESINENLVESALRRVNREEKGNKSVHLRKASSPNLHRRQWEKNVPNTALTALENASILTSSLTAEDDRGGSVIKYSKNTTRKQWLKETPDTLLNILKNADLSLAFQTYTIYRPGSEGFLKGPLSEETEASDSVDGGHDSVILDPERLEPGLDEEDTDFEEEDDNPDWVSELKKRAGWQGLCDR

[8] = target: Cyclin-dependent kinase 7 (Homo sapiens, UniProt P50613); assay: Selectivity interaction (KinomeScan (DiscoverX)) EUB0000595a CDK7; conditions: at 10 µM
[9] = target: Mitogen-activated protein kinase kinase kinase 11 (Homo sapiens) (UniProt Q16584); assay: Selectivity interaction (Kinase panel (Eurofins)) EUB0001564a MAP3K11; conditions: at 1 µM
[10] = target: STE20-like serine/threonine-protein kinase (Homo sapiens, UniProt Q9H2G2); assay: Selectivity interaction (KinomeScan (DiscoverX)) EUB0001619a SLK; conditions: at 1 µM
Sequence of STE20-like serine/threonine-protein kinase (Q9H2G2 whole entry, looked up): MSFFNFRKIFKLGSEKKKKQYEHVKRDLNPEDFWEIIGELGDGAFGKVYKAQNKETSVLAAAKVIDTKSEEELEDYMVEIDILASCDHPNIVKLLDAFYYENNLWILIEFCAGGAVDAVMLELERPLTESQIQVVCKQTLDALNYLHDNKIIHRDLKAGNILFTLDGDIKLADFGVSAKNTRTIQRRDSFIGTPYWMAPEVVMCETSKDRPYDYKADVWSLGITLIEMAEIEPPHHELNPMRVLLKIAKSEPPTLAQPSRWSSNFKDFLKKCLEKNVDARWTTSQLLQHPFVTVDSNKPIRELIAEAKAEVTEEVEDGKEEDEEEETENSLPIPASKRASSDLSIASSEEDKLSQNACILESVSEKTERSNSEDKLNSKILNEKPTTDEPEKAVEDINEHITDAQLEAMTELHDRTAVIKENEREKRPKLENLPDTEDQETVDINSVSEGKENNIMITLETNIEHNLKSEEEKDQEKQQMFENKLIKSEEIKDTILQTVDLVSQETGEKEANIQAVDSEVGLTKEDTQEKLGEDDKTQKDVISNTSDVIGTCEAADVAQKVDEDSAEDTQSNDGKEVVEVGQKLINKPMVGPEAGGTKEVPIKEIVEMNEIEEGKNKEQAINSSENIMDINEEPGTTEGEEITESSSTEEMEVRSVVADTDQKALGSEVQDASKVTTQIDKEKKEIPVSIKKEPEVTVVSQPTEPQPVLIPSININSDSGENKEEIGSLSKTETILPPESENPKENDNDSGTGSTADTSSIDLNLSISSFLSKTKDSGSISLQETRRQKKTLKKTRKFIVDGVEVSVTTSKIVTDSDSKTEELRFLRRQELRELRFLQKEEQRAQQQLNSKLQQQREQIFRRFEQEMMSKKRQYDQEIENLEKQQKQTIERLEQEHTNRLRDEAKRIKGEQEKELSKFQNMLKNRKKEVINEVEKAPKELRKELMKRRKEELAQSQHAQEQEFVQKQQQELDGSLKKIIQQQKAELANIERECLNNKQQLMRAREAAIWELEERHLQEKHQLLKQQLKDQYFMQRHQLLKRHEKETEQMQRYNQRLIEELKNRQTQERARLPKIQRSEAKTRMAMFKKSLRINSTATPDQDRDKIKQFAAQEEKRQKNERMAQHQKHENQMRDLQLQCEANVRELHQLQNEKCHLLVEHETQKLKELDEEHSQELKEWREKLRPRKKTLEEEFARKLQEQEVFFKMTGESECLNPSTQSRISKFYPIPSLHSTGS

Sequence of Calcium/calmodulin-dependent protein kinase type 1D (Homo sapiens) (Q8IU85 whole entry, looked up): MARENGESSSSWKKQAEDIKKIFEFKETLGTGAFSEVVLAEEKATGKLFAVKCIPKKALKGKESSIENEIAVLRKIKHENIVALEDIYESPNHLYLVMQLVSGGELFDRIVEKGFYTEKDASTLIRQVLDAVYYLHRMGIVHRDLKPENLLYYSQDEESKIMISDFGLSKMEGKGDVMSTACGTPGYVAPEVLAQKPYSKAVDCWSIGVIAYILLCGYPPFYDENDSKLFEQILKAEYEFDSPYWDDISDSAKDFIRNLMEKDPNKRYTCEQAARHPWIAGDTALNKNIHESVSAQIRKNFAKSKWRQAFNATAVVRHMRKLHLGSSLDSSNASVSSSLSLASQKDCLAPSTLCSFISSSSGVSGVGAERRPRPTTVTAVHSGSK
Sequence of Cyclin-dependent kinase 7 (P50613 whole entry): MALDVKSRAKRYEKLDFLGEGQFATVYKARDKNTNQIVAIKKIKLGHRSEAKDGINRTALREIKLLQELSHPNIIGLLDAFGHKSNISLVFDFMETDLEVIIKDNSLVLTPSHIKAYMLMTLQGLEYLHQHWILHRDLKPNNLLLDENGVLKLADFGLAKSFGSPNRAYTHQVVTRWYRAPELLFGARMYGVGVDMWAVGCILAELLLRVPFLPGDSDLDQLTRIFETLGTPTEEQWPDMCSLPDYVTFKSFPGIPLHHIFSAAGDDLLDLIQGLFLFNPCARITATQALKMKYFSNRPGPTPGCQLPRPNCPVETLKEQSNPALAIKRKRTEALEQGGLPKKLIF
Sequence of Mitogen-activated protein kinase 9 (P45984 whole entry, looked up): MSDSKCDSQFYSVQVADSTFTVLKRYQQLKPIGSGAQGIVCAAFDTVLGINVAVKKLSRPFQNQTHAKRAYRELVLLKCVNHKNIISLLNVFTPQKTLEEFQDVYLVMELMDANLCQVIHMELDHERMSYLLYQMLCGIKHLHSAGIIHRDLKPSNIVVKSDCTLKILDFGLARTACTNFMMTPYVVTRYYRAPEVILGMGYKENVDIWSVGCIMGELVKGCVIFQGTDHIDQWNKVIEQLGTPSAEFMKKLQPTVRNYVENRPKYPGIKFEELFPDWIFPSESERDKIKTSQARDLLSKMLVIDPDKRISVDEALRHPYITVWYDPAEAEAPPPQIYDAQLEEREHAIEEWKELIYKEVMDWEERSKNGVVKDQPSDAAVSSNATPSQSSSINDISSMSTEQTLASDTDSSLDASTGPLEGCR
Sequence of Mitogen-activated protein kinase kinase kinase 11 (Homo sapiens) (Q16584 whole entry, looked up): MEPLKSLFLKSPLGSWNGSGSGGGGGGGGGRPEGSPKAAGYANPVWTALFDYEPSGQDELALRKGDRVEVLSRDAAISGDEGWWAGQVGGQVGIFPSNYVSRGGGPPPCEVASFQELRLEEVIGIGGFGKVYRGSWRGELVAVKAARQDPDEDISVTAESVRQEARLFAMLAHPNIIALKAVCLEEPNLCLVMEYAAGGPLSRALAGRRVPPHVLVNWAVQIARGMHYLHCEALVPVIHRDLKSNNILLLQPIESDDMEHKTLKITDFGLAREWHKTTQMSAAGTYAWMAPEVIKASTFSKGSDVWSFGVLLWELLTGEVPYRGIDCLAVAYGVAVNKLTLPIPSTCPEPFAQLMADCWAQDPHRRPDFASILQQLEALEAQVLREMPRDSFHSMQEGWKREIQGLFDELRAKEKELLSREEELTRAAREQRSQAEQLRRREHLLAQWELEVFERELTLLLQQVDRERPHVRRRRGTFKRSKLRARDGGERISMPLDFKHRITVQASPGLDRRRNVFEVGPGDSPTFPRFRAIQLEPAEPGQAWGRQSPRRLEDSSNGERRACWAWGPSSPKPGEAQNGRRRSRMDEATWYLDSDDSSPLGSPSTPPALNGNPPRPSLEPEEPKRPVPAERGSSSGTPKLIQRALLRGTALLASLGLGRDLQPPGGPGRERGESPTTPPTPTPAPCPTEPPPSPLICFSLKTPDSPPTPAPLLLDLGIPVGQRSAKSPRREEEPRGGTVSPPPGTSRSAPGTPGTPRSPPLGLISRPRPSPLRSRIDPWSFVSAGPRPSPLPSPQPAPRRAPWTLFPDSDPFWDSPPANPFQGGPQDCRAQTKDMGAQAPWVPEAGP
Sequence of Tyrosine-protein kinase BTK (Q06187 whole entry): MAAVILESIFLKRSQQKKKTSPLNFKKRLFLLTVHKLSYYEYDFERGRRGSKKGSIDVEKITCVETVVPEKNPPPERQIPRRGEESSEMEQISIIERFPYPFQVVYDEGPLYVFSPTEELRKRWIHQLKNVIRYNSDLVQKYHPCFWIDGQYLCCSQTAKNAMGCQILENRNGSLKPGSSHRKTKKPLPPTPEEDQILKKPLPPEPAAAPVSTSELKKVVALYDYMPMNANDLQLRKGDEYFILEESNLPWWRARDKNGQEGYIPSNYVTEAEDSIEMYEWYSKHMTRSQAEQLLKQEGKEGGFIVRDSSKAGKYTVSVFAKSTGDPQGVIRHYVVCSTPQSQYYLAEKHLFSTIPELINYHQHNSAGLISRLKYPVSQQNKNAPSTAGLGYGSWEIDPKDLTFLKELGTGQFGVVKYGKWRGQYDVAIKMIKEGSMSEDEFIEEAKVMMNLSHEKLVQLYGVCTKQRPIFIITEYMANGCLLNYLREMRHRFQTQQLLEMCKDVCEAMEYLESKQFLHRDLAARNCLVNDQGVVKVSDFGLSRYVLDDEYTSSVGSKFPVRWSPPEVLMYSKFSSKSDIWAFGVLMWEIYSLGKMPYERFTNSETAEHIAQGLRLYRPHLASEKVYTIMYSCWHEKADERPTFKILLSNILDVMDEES

With `CCN(CC)CCCCNc1ncc2cc(-c3cc(OC)cc(OC)c3)c(NC(=O)NC(C)(C)C)nc2n1` the % of control [1] was 100%.
`CC[C@@H]1[C@H](F)C(=O)N[C@@H]1COc1nccc2cc(C(N)=O)c(OC)cc12` [ZIMLOVISERTIB] gave a % of inhibition [2] of -17.7% and a % of inhibition [3] of 2.36%.
`CNC(=O)Nc1ccc(-c2nc(N3CC4CCC(C3)O4)c3cnn(C4CCC5(CC4)OCCO5)c3n2)cc1` gave a % of control [4] of 81%.
With `COc1cc(Nc2nc(C)cc(-c3cnn4nc(OC)ccc34)n2)cc(C(F)(F)F)c1` the % of control [5] was 92%.
For `Cc1cc(F)c(C(=O)Nc2cccc(-c3nncn3C(C)C)n2)cc1-n1cnc(C2CC2)c1`, the % of control [6] was 78%.
Work on `COCC(=O)NC/C=C/c1ccc2ncnc(Nc3ccc(Oc4ccc(C)nc4)c(C)c3)c2c1` [CP-724714] yielded a % of control [7] of 95% and a % of control [8] of 100%.
Compound `CC[C@@H](Nc1c(C#N)c(-c2ccc(-c3cccc(C)c3F)cc2)nc2cnccc12)C(=O)O` [BAY-091] has a % of inhibition [9] of 21.1%.
`N#Cc1cccc(-c2c[nH]c3ncnc(N4CCOCC4)c23)c1` showed a % of control [10] of 25%.
